# Measured values reported in PubChem BioAssay AID2060616 (Molecular Pharmacology Branch, DTP, NCI, 2025).
# Tested on: 377384-186-R-J1-PDC complex spheroid viability
# Experiment: Anticancer human tumor 377384-186-R-J1-PDC patient-derived pancreatic carcinoma cell line growth inhibition [CLK]
# Conditions: for IC50: curve of first compound; for viability, T/C: stronger effect = lower value
# How it was run: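 Patient-derived tumor cells grown as complex spheroids with HUVEC endothelial cells and mesenchymal stem cells, treated with drug combinations. Concentrations descend in half-log steps from near clinical Cmax, or from 10 microM if Cmax unknown.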
# [1] = second compound 0.0316 µM, first compound 0.0316 µM
# [2] = second compound 0.0316 µM, first compound 0.1 µM
# [3] = second compound 0.0316 µM, first compound 0.316 µM
# [4] = second compound 0.0316 µM, first compound 1 µM
# [5] = second compound 0.0316 µM, first compound 3.16 µM
# [6] = second compound 0.0316 µM, first compound 10 µM
# [7] = second compound 0.1 µM, first compound 0.0316 µM
# [8] = second compound 0.1 µM, first compound 0.1 µM
# [9] = second compound 0.1 µM, first compound 0.316 µM
# [10] = second compound 0.1 µM, first compound 1 µM
# [11] = second compound 0.1 µM, first compound 3.16 µM
# [12] = second compound 0.1 µM, first compound 10 µM
# [13] = second compound 0.316 µM, first compound 0.0316 µM
# [14] = second compound 0.316 µM, first compound 0.1 µM
# [15] = second compound 0.316 µM, first compound 0.316 µM
# [16] = second compound 0.316 µM, first compound 1 µM
# [17] = second compound 0.316 µM, first compound 3.16 µM
# [18] = second compound 0.316 µM, first compound 10 µM
# [19] = second compound 1 µM, first compound 0.0316 µM
# [20] = second compound 1 µM, first compound 0.1 µM
# [21] = second compound 1 µM, first compound 0.316 µM
# [22] = second compound 1 µM, first compound 1 µM
# [23] = second compound 1 µM, first compound 3.16 µM
# [24] = second compound 1 µM, first compound 10 µM
# [25] = second compound 3.16 µM, first compound 0.0316 µM
# [26] = second compound 3.16 µM, first compound 0.1 µM
# [27] = second compound 3.16 µM, first compound 0.316 µM
# [28] = second compound 3.16 µM, first compound 1 µM
# [29] = second compound 3.16 µM, first compound 3.16 µM
# [30] = second compound 3.16 µM, first compound 10 µM
# [31] = second compound 10 µM, first compound 0.0316 µM
# [32] = second compound 10 µM, first compound 0.1 µM
# [33] = second compound 10 µM, first compound 0.316 µM
# [34] = second compound 10 µM, first compound 1 µM
# [35] = second compound 10 µM, first compound 3.16 µM
# [36] = second compound 10 µM, first compound 10 µM
# 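Note: spheroids exposed to agents for 7 days before reading.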
# 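Throughout, for viability, T/C: luminescence signal used as a stand-in for viable cells.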
smiles,measurement,setting,value
Nc1ccccc1NC(=O)c1ccc(CNC(=O)OCc2cccnc2)cc1 + CNC(=O)c1ccc(Nc2nc(OC3CCCC3)c3c(-c4ccc5nc(C)oc5c4)c[nH]c3n2)c(OC)c1,IC50,second compound 0.0316 µM,434 nM
same,IC50,second compound 0.1 µM,128 nM
same,IC50,second compound 0.316 µM,< 31.6 nM
same,IC50,second compound 1 µM,< 31.6 nM
same,IC50,second compound 3.16 µM,< 31.6 nM
same,IC50,second compound 10 µM,< 31.6 nM
same,"viability, T/C",[1],94.4%
same,"viability, T/C",[2],75.5%
same,"viability, T/C",[3],62.5%
same,"viability, T/C",[4],26.7%
same,"viability, T/C",[5],11.9%
same,"viability, T/C",[6],1.2%
same,"viability, T/C",[7],57.9%
same,"viability, T/C",[8],57.2%
same,"viability, T/C",[9],35.9%
same,"viability, T/C",[10],30.2%
same,"viability, T/C",[11],12.3%
same,"viability, T/C",[12],1.53%
same,"viability, T/C",[13],24.8%
same,"viability, T/C",[14],23.2%
same,"viability, T/C",[15],18%
same,"viability, T/C",[16],19.4%
same,"viability, T/C",[17],9.99%
same,"viability, T/C",[18],1.4%
same,"viability, T/C",[19],22.6%
same,"viability, T/C",[20],23%
same,"viability, T/C",[21],19.7%
same,"viability, T/C",[22],21.5%
same,"viability, T/C",[23],12.6%
same,"viability, T/C",[24],1.83%
same,"viability, T/C",[25],20.9%
same,"viability, T/C",[26],21.6%
same,"viability, T/C",[27],21.7%
same,"viability, T/C",[28],16.9%
same,"viability, T/C",[29],12.1%
same,"viability, T/C",[30],0.82%
same,"viability, T/C",[31],20.6%
same,"viability, T/C",[32],22.9%
same,"viability, T/C",[33],19%
same,"viability, T/C",[34],18.6%
same,"viability, T/C",[35],13.7%
same,"viability, T/C",[36],1.29%
C=CC(=O)N1CCN(c2nc(=O)n(-c3c(C)ccnc3C(C)C)c3nc(-c4c(O)cccc4F)c(F)cc23)C(C)C1 (stereo unspecified) + CN1CCN(c2cc(C(=O)Nc3cc4cc(-c5cnn(C)c5)ccc4cn3)ccn2)CC1,IC50,second compound 0.0316 µM,> 10000 nM
same,IC50,second compound 0.1 µM,> 10000 nM
same,IC50,second compound 0.316 µM,< 31.6 nM
same,IC50,second compound 1 µM,< 31.6 nM
same,IC50,second compound 3.16 µM,< 31.6 nM
same,IC50,second compound 10 µM,< 31.6 nM
same,"viability, T/C",[1],95.5%
same,"viability, T/C",[2],101%
same,"viability, T/C",[3],114%
same,"viability, T/C",[4],131%
same,"viability, T/C",[5],117%
same,"viability, T/C",[6],101%
same,"viability, T/C",[7],104%
same,"viability, T/C",[8],92.8%
same,"viability, T/C",[9],110%
same,"viability, T/C",[10],112%
same,"viability, T/C",[11],116%
same,"viability, T/C",[12],88.3%
same,"viability, T/C",[13],27.9%
same,"viability, T/C",[14],35.2%
same,"viability, T/C",[15],38.1%
same,"viability, T/C",[16],41.4%
same,"viability, T/C",[17],37.6%
same,"viability, T/C",[18],24.7%
same,"viability, T/C",[19],1.29%
same,"viability, T/C",[20],1.17%
same,"viability, T/C",[21],1.31%
same,"viability, T/C",[22],1.24%
same,"viability, T/C",[23],2.37%
same,"viability, T/C",[24],2.29%
same,"viability, T/C",[25],0.53%
same,"viability, T/C",[26],0.78%
same,"viability, T/C",[27],0.7%
same,"viability, T/C",[28],0.78%
same,"viability, T/C",[29],1.84%
same,"viability, T/C",[30],3.69%
same,"viability, T/C",[31],0.44%
same,"viability, T/C",[32],0.59%
same,"viability, T/C",[33],1.65%
same,"viability, T/C",[34],0.86%
same,"viability, T/C",[35],1.07%
same,"viability, T/C",[36],0.98%
COc1ccc([C@@H](O)c2cc(-c3ncnc4cc(N5CCOCC5)ccc34)c(F)cc2Cl)nn1 + CN1CCN(c2cc(C(=O)Nc3cc4cc(-c5cnn(C)c5)ccc4cn3)ccn2)CC1,IC50,second compound 0.0316 µM,6040 nM
same,IC50,second compound 0.1 µM,4230 nM
same,IC50,second compound 0.316 µM,< 31.6 nM
same,IC50,second compound 1 µM,< 31.6 nM
same,IC50,second compound 3.16 µM,< 31.6 nM
same,IC50,second compound 10 µM,< 31.6 nM
same,"viability, T/C",[1],119%
same,"viability, T/C",[2],111%
same,"viability, T/C",[3],88.8%
same,"viability, T/C",[4],78.2%
same,"viability, T/C",[5],59.3%
same,"viability, T/C",[6],42.5%
same,"viability, T/C",[7],114%
same,"viability, T/C",[8],99.9%
same,"viability, T/C",[9],73.7%
same,"viability, T/C",[10],70.6%
same,"viability, T/C",[11],57.6%
same,"viability, T/C",[12],37.2%
same,"viability, T/C",[13],18.3%
same,"viability, T/C",[14],22.8%
same,"viability, T/C",[15],16.8%
same,"viability, T/C",[16],18.1%
same,"viability, T/C",[17],18.5%
same,"viability, T/C",[18],16%
same,"viability, T/C",[19],0.76%
same,"viability, T/C",[20],0.63%
same,"viability, T/C",[21],0.7%
same,"viability, T/C",[22],1.13%
same,"viability, T/C",[23],1.12%
same,"viability, T/C",[24],1.02%
same,"viability, T/C",[25],0.38%
same,"viability, T/C",[26],0.32%
same,"viability, T/C",[27],1.16%
same,"viability, T/C",[28],0.36%
same,"viability, T/C",[29],0.35%
same,"viability, T/C",[30],0.98%
same,"viability, T/C",[31],0.49%
same,"viability, T/C",[32],0.35%
same,"viability, T/C",[33],0.33%
same,"viability, T/C",[34],0.39%
same,"viability, T/C",[35],1.26%
same,"viability, T/C",[36],0.36%
